US20050053669A1, “Administration form for the oral application of poorly soluble acidic and amphorteric drugs” (Boehringer Ingelheim International GmbH, priority 2003, published 2005)

Key:
[1] = phase I study, plasma levels on increasing the dose; type: in vivo, human
Excerpt: Generally increasing the dose in order to compensate for the reduced bioavailability in patients is frequently undesirable because of the waste of active substance and the greater burden on the patient and the associated risk of side effects, for example, or even totally impossible, on the grounds of drug safety.

[2] = solubility of the active substance; type: physicochemical
Method: The solubility of a compound may be determined by dispersing an excess of the compound at ambient temperature in the medium in question and shaking it vigorously for a defined length of time (approx. 1 to 24 h) until equilibrium is achieved. After filtration the pH is determined in the clear filtrate and the concentration of the dissolved substance is determined by spectral photometry or some other suitable analytical process.

SMILES | plasma levels achieved with 200 mg ([1]; 200 mg compared with 600 mg) | higher plasma levels on increasing the dose ([1]; dose increased from 100 to 600 mg) | solubility in an acidic medium [2]
O=C(O)CCC/C=C(\c1ccc(CCNS(=O)(=O)c2ccc(Cl)cc2)cc1)c1cccnc1 [DT-TX 30] | equal to those obtained with 600 mg | about 50% | –
CCCc1nc2c(C)cc(-c3nc4ccccc4n3C)cc2n1Cc1ccc(-c2ccccc2C(=O)O)cc1 [telmisartan] | – | – | readily soluble
